How the values were obtained:
[1] = tested on: LNCaP prostate carcinoma cells; experiment: Flow cytometric analysis (sub-G1 peak); assay type: cell-based; conditions: 48 hours, MP-470 alone
Method: (§1) In addition, A549 non-small cell lung cancer (NSCLC) cells and LNCaP prostate carcinoma cells were treated with MP-470 in the presence or absence of Tarceva® for 48 hours and subjected to flow cytometric analysis. Nocodazole was also included to induce a G2/M arrest, in an effort to determine if these compounds could overcome such a block. Left-hand columns for each cell type represent cells with no additional treatment, while right-hand columns represent cells pretreated overnight with nocodazole (0.3 ug/mL) to induce G2/M arrest.

[2] = tested on: A549 non-small cell lung cancer (NSCLC) cells; experiment: Flow cytometric analysis (sub-G1 peak); assay type: cell-based; conditions: A549, 48 hours, MP-470 alone
Method: as §1

cAMP-PK = cAMP-PK (Homo sapiens, UniProt P17612); experiment: Kinase-Glo Luminescent Kinase Assay (Examples 27, 33); assay type: biochemical
Method: The following conditions were used:
The protein serine-threonine kinases cAMP PK, MKK6 and Cdk1 were tested alongside Aurora-2 kinase to evaluate the activity of compound (II-2-6) against these protein kinases. Briefly, in this assay kinase activity is determined by quantifying the amount of ATP remaining in solution following the kinase reaction by measuring the relative light units (RLU) produced by luciferase using a luminometer. Percent activity was determined for individual compounds by comparing luminometer readings of drug-treated reactions to controls containing no drug (RLUNo Inhib) and no Aurora-2 enzyme (RLUNo Kinase) in the following equation: […]

Row | Structure (SMILES) | apoptosis (sub-G1 peak) [1] | apoptosis (sub-G1 peak) [2] | kinase inhibitory activity (in words) (cAMP-PK; cAMP PK, FIG. 27) | IC50 (cAMP-PK; cAMP-PK, 0.1 μM ATP, 30 μM Kemptide) [µM]
1 | S=C(NCc1ccc2c(c1)OCO2)N1CCN(c2ncnc3c2oc2ccccc23)CC1 [HPK56, 4-Benzo[4,5]furo[3,2-d]pyrimidin-4-yl-piperazine-1-carbothioic acid (benzo[1,3]dioxol-5-ylmethyl)-amide] | induced apoptosis | induced apoptosis |  | 
2 | COc1cc2[nH]c3ncnc(N4CCN(C(=S)Nc5ccc(S(=O)(=O)Nc6ncccn6)cc5)CC4)c3c2cc1OC [HPK62, 4-(6,7-Dimethoxy-9H-1,3,9-triaza-fluoren-4-yl)-piperazine-1-carbothioic acid [4-(pyrimidin-2-ylsulfamoyl)-phenyl]-amide] |  |  | inhibitory activity | > 100
